Measurements reported in the supplement of paper PMC6045584.
± gives the standard deviation of the averaged measurements.

Compound: CN1CC[C@H](c2c(O)cc(O)c3c(=O)cc(-c4ccccc4Cl)oc23)[C@H](O)C1 [FLAVOPIRIDOL]
Experiment: surviving fraction relative to DMSO-only wells; higher = less growth inhibition
Conditions: exposure time: 5 days
Outline: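 For each tumour cell line, log-phase cells were put into 384-well plates at 250–500 cells per well, then after 24 hours exposed continuously for five days to inhibitors at 0.5, 1, 5, 10, 50, 100, 500 and 1000 nM. Viability was assessed by CellTiter-Glo luminescence, with surviving fraction expressed relative to the median of DMSO-only wells. Lines were screened three times and retained only if replicate Pearson r exceeded 0.7 and median Z' exceeded 0.3.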

| Test System | surviving fraction (0.5 nM) | surviving fraction (1 nM) | surviving fraction (5 nM) | surviving fraction (10 nM) | surviving fraction (50 nM) | surviving fraction (100 nM) | surviving fraction (500 nM) | surviving fraction (1000 nM) |
| --- | --- | --- | --- | --- | --- | --- | --- | --- |
| 22RV1 PROSTATE | 1.04 ± 0.12 | 0.928 ± 0.16 | 0.953 ± 0.11 | 0.893 ± 0.2 | 0.897 ± 0.11 | 0.405 ± 0.14 | 0.124 ± 0.11 | 0.118 ± 0.086 |
| 93VU HEADNECK | 1.04 ± 0.088 | 1.03 ± 0.012 | 1.19 ± 0.066 | 1.12 ± 0.11 | 0.82 ± 0.011 | 0.0713 ± 0.0035 | 0.0237 ± 0.0015 | 0.0217 ± 0.0015 |
| 143B BONE | 1.12 ± 0.14 | 1.11 ± 0.086 | 1.11 ± 0.048 | 1.11 ± 0.095 | 0.824 ± 0.024 | 0.279 ± 0.0035 | 0.045 ± 0.0028 | 0.042 ± 0.0028 |
| A549 LUNG | 1.04 ± 0.011 | 1.05 ± 0.015 | 1.06 ± 0.013 | 1.05 ± 0.018 | 1.18 ± 0.028 | 0.379 ± 0.11 | 0.0697 ± 0.0058 | 0.0687 ± 0.0038 |
| ASKA SYNOVIAL | 1.02 ± 0.087 | 1.02 ± 0.066 | 1.11 ± 0.054 | 1.11 ± 0.036 | 0.507 ± 0.065 | 0.202 ± 0.01 | 0.186 ± 0.012 | 0.261 ± 0.0078 |
| BT20 BREAST | 1.21 ± 0.073 | 1.16 ± 0.022 | 1.17 ± 0.1 | 1.013 ± 0.0035 | 0.742 ± 0.12 | 0.359 ± 0.012 | 0.038 ± 0.0062 | 0.0367 ± 0.004 |
| BT549 BREAST | 1.17 ± 0.052 | 1.13 ± 0.094 | 1.11 ± 0.07 | 0.994 ± 0.021 | 0.454 ± 0.035 | 0.074 ± 0.012 | 0.0343 ± 0.005 | 0.035 ± 0.007 |
| C33A CERVIX | 0.991 ± 0.084 | 1.1 ± 0.041 | 1.12 ± 0.067 | 1.31 ± 0.13 | 0.923 ± 0.13 | 0.366 ± 0.011 | 0.028 ± 0.0027 | 0.0277 ± 0.0072 |
| CADOES1 SOFT TISSUE | 0.844 ± 0.099 | 0.924 ± 0.062 | 0.843 ± 0.13 | 0.888 ± 0.082 | 0.332 ± 0.062 | 0.146 ± 0.054 | 0.0357 ± 0.0051 | 0.038 |
| CAL51 BREAST | 1.02 ± 0.065 | 0.983 ± 0.092 | 1.02 ± 0.056 | 0.877 ± 0.092 | 0.528 ± 0.0091 | 0.0968 ± 0.014 | 0.0297 ± 0.00058 | 0.03133 ± 0.00029 |
| CAL72 BONE | 1.09 ± 0.1 | 1.06 ± 0.021 | 1.05 ± 0.049 | 0.982 ± 0.04 | 0.649 ± 0.053 | 0.142 ± 0.053 | 0.0577 ± 0.0032 | 0.0577 ± 0.0076 |
| CAL120 BREAST | 0.971 ± 0.055 | 0.972 ± 0.029 | 0.955 ± 0.058 | 0.949 ± 0.03 | 0.73 ± 0.034 | 0.314 ± 0.051 | 0.0425 ± 0.003 | 0.0403 ± 0.0016 |
| CASKI CERVIX | 0.918 ± 0.045 | 0.969 ± 0.031 | 0.919 ± 0.055 | 0.888 ± 0.056 | 0.284 ± 0.028 | 0.0293 ± 0.0015 | 0.022 ± 0.001 | 0.0253 ± 0.00058 |
| CHLA90 AUTONOMIC GANGLIA | 0.987 ± 0.1 | 1 ± 0.12 | 0.906 ± 0.083 | 0.878 ± 0.021 | 0.826 ± 0.11 | 0.573 ± 0.072 | 0.0277 ± 0.0015 | 0.0247 ± 0.00058 |
